This is an account of results in ChEMBL document CHEMBL1201862, “PubChem BioAssay data set” (2004).

Some test systems named below: MDA-MB-231; EKVX; A498; M14; SK-MEL-2; NCI-H522; Malme-3M; 786-0; CCRF-CEM; NCI-H226; COLO 205; BT-549; CAKI-1; MCF7; MOLT-4; SK-MEL-28; OVCAR-8; PC-3; UACC-257; DLD-1.
What all share (assay): DTP human tumour cell line panel, 48 h

SMILES strings stand for the structures.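 Following 48 hours of exposure in 96-well plates, responses at five concentrations were used to interpolate endpoints linearly. Abbreviation: GI50, concentration required for 50% inhibition of growth.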 Activity calls are given as the source filed them. No stated cut-off is given here; in the data, active = GI50 up to about 1.1 µM and inactive = higher.

As to `Cn1c(=O)c2nc(COCc3nc4c(=O)n(C)c(=O)n(C)c4[nH]3)[nH]c2n(C)c1=O`, the GI50 with MDA-MB-231, in the test with EKVX, in the test on A498, with M14, in the test on SK-MEL-2 and with NCI-H522 was > 100 µM (inactive) in each case. Moreover, the GI50 in the test on Malme-3M, in the test with 786-0, in the test with CCRF-CEM, in the test on NCI-H226, with COLO 205 and in the test with BT-549 was > 100 µM (inactive) in each case. Besides, the GI50 in the test with CAKI-1, in the test with MCF7, in the test on MOLT-4, in the test on SK-MEL-28, with OVCAR-8 and in the test on PC-3 was > 100 µM (inactive) each time. In addition, in the test with UACC-257, the GI50 is > 100 µM (inactive).

`O=C(CSc1nnc(Cc2ccccc2)o1)Nc1cccc([N+](=O)[O-])c1`: the GI50 in the test on M14, in the test with SK-MEL-2, with NCI-H522, in the test on Malme-3M, in the test with 786-0 and with CCRF-CEM was > 100 µM (inactive) each time. For the same molecule, the GI50 with DLD-1, in the test on NCI-H226, in the test on COLO 205, in the test with MOLT-4, in the test with SK-MEL-28 and with OVCAR-8 was > 100 µM (inactive) each time. Further, the GI50 in the test with UACC-257 is > 100 µM (inactive).

Consider `CCOc1ccc(NCC(=O)N2CC(=O)Nc3ccccc32)cc1`, for which the GI50 in the test with EKVX, in the test with M14, with SK-MEL-2, in the test on NCI-H522, in the test with Malme-3M and in the test on 786-0 was > 100 µM (inactive) each time. Besides, the GI50 in the test with CCRF-CEM, in the test with DLD-1, in the test with NCI-H226, with COLO 205, in the test with CAKI-1 and with MOLT-4 was > 100 µM (inactive) throughout. Further, the GI50 in the test with SK-MEL-28, in the test with OVCAR-8 and with UACC-257 was > 100 µM (inactive) throughout.

Turning to `O=c1c2c3c(sc2nc2n1NC=NN2)CCCC3`, the GI50 with MDA-MB-231 was 13.4 µM (inactive); with EKVX, 13.3 µM (inactive); in the test with A498, > 53.6 µM (inactive); with M14, 25.8 µM (inactive); in the test with SK-MEL-2, 19.4 µM (inactive); in the test with NCI-H522, 16.3 µM (inactive). In addition, the GI50 with Malme-3M is 21.4 µM (inactive); in the test on 786-0, 17.6 µM (inactive); in the test with CCRF-CEM it was 0.731 µM (active); in the test on NCI-H226, 17.3 µM (inactive); in the test on COLO 205, 25.4 µM (inactive); with BT-549, 17.5 µM (inactive). Besides, the GI50 in the test on CAKI-1 is 18 µM (inactive); in the test with MCF7, 13.8 µM (inactive); in the test with MOLT-4, 0.323 µM (active); with SK-MEL-28, 17.7 µM (inactive); in the test on OVCAR-8 it was 24.7 µM (inactive); with PC-3 it was 24.2 µM (inactive). In addition, the GI50 in the test on UACC-257 is 19.9 µM (inactive).

As to `C/C(CC(=O)Nc1ccc(Cl)cc1)=N\NC(=O)C[n+]1ccccc1`, the GI50 with EKVX is > 100 µM (inactive); in the test on M14 it was > 100 µM (inactive); in the test on SK-MEL-2 it was > 100 µM (inactive); in the test on NCI-H522, 75 µM (inactive); with Malme-3M it was > 100 µM (inactive); in the test with 786-0, > 100 µM (inactive). For the same molecule, the GI50 in the test with CCRF-CEM, in the test with DLD-1, in the test on NCI-H226, in the test on COLO 205, with MOLT-4 and in the test on SK-MEL-28 was > 100 µM (inactive) in each case. Moreover, the GI50 in the test with OVCAR-8 and in the test with UACC-257 was > 100 µM (inactive) throughout.

As to `O=C1CC(Br)c2c(Br)sc(Br)c21` (configuration not stated), the GI50 in the test on MDA-MB-231 is 18.9 µM (inactive); in the test with EKVX, 19.3 µM (inactive); in the test on A498 it was 91.4 µM (inactive); with M14, 15.8 µM (inactive); in the test with SK-MEL-2, 18.5 µM (inactive); in the test on NCI-H522, 12.1 µM (inactive). In addition, the GI50 is 19.7 µM (inactive) with Malme-3M; 16.3 µM (inactive) with 786-0; 2.51 µM (inactive) with CCRF-CEM; 29.8 µM (inactive) in the test with NCI-H226; 19.8 µM (inactive) in the test on COLO 205; 19 µM (inactive) in the test on BT-549. Moreover, the GI50 was 22 µM (inactive) in the test on CAKI-1; 16.5 µM (inactive) with MCF7; 0.906 µM (active) in the test with MOLT-4; 32 µM (inactive) in the test with SK-MEL-28; 16.1 µM (inactive) with OVCAR-8; 19.1 µM (inactive) in the test on PC-3. For the same molecule, the GI50 in the test on UACC-257 was 15.7 µM (inactive).

Take `CCOC(=O)C1(C#N)C(c2ccccc2)CC(O)(c2ccc([N+](=O)[O-])cc2)C(C(=O)c2ccc([N+](=O)[O-])cc2)C1c1ccccc1` (configuration not stated): the GI50 was > 100 µM (inactive) in the test with EKVX; > 100 µM (inactive) in the test on M14; > 100 µM (inactive) with SK-MEL-2; 34 µM (inactive) with NCI-H522; > 100 µM (inactive) in the test with Malme-3M; > 100 µM (inactive) in the test on 786-0. In addition, the GI50 in the test on CCRF-CEM, with DLD-1, in the test with NCI-H226, in the test with COLO 205, in the test on CAKI-1 and in the test on MOLT-4 was > 100 µM (inactive) throughout. The GI50 in the test on SK-MEL-28, in the test on OVCAR-8 and with UACC-257 was > 100 µM (inactive) in each case.

As to `CC1=NN=C(N)N/C1=C/C(Sc1ccc(Cl)cc1)c1cccs1` (configuration not stated), the GI50 with MDA-MB-231 is > 10 µM (inactive); in the test with EKVX, 14.4 µM (inactive); with A498, 16.4 µM (inactive); in the test with M14, 13.4 µM (inactive); in the test with SK-MEL-2, 13.4 µM (inactive); in the test with NCI-H522, 4.65 µM (inactive). In addition, the GI50 with Malme-3M is 13.1 µM (inactive); in the test with 786-0, 18.5 µM (inactive); in the test on CCRF-CEM, 3.52 µM (inactive); in the test with NCI-H226 it was 17 µM (inactive); with COLO 205, 22.1 µM (inactive); in the test on BT-549 it was 37.9 µM (inactive). Also, the GI50 in the test with CAKI-1 was 15.7 µM (inactive); with MCF7, 6.53 µM (inactive); in the test with MOLT-4 it was 13.6 µM (inactive); in the test with SK-MEL-28 it was 17.5 µM (inactive); in the test on OVCAR-8, 16 µM (inactive); in the test on PC-3, 12.8 µM (inactive). Further, in the test with UACC-257, the GI50 was 18.3 µM (inactive).

Consider `CC(=O)OC1CC2OC(Cc3ccccc32)O1` (configuration not stated), for which the GI50 is > 100 µM (inactive) in the test on EKVX; 79.1 µM (inactive) in the test on M14; > 100 µM (inactive) in the test with SK-MEL-2; > 100 µM (inactive) with NCI-H522; 27.6 µM (inactive) with Malme-3M; > 100 µM (inactive) with 786-0. Further, the GI50 in the test with CCRF-CEM is 56.1 µM (inactive); with DLD-1, 64.1 µM (inactive); in the test on NCI-H226 it was 36.8 µM (inactive); in the test with COLO 205 it was > 100 µM (inactive); in the test on MOLT-4, 48.9 µM (inactive); with SK-MEL-28 it was > 100 µM (inactive). In addition, the GI50 in the test on OVCAR-8 and in the test on UACC-257 was > 100 µM (inactive) in each case.

On to `O=C(C=P(c1ccccc1)(c1ccccc1)c1ccccc1)CC(=S)CC(=O)C=P(c1ccccc1)(c1ccccc1)c1ccccc1`, for which the GI50 with EKVX is 21.6 µM (inactive); with A498 it was 4.14 µM (inactive); in the test on M14 it was 4.12 µM (inactive); with NCI-H522, 2.74 µM (inactive); in the test with Malme-3M, 5.01 µM (inactive); with 786-0, 4.16 µM (inactive). In addition, the GI50 was 3.24 µM (inactive) in the test with CCRF-CEM; 4.58 µM (inactive) in the test with DLD-1; 5.85 µM (inactive) in the test on NCI-H226; 1.89 µM (inactive) in the test on COLO 205; 16.2 µM (inactive) in the test with CAKI-1; 8.22 µM (inactive) in the test with SK-MEL-28. Also, the GI50 with OVCAR-8 was 3.56 µM (inactive); with UACC-257, 3.15 µM (inactive).

On to `Cc1ccccc1NC(=O)C(=O)CC(=O)c1ccc([N+](=O)[O-])cc1`, for which the GI50 in the test on EKVX, in the test with M14, with SK-MEL-2, with Malme-3M, in the test with 786-0 and in the test on DLD-1 was > 100 µM (inactive) each time. Also, the GI50 in the test with NCI-H226, with COLO 205, with CAKI-1, in the test with SK-MEL-28, in the test with OVCAR-8 and in the test with UACC-257 was > 100 µM (inactive) each time.

Take `C/C1=C\CC/C(C)=C/C=C(/C(C)C)CC/C(C(=O)O)=C/CC1` [CROTOCEMBRANEIC ACID]: the GI50 with MDA-MB-231 is 56.5 µM (inactive); with EKVX, 39 µM (inactive); in the test on A498, 21 µM (inactive); in the test with M14 it was 45 µM (inactive); in the test with SK-MEL-2, 25.7 µM (inactive); in the test with NCI-H522 it was 38.1 µM (inactive). The GI50 with Malme-3M is 70.1 µM (inactive); with 786-0, 55.7 µM (inactive); in the test on CCRF-CEM, 30.5 µM (inactive); in the test with NCI-H226, 33 µM (inactive); with COLO 205 it was 19.9 µM (inactive); in the test with BT-549, 61.5 µM (inactive). The GI50 in the test on CAKI-1 is 49.9 µM (inactive); in the test with MCF7, 34.2 µM (inactive); in the test on MOLT-4, 28.3 µM (inactive); in the test on SK-MEL-28, > 100 µM (inactive); with OVCAR-8, 66.2 µM (inactive); in the test on PC-3, 40.2 µM (inactive). For the same molecule, the GI50 in the test with UACC-257 is 82.8 µM (inactive).
